In PMC11486130, “Structure-guided discovery of novel dUTPase inhibitors with anti-Nocardia activity by computational design” (Journal of Enzyme Inhibition and Medicinal Chemistry, 2024):

How the values were obtained:
NsdUTPase A22V = target: T1, NsdUTPase A22V (Nocardia seriolae, UniProt A0ABF7PKI9, A22V); assay: Kd to A22V mutant of NsdUTPase; assay type: binding, N. seriolae
T1 sequence (A0ABF7PKI9 1-166 A22V): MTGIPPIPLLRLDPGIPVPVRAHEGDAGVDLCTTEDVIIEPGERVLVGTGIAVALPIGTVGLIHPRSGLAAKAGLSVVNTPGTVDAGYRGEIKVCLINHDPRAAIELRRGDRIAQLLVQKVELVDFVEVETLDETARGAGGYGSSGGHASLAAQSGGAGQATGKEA

NsdUTPase K93A = target: T2, NsdUTPase K93A (Nocardia seriolae, UniProt A0ABF7PKI9, K93A); assay: Kd to K93A mutant of NsdUTPase; assay type: binding, N. seriolae
T2 sequence (A0ABF7PKI9 1-166 K93A): T1 sequence (A0ABF7PKI9 1-166 A22V)

| Structure (SMILES) | Kd (NsdUTPase A22V) [µM] | Kd (NsdUTPase K93A) [µM] |
| --- | --- | --- |
| C=CCn1c(/C=C/c2ccccc2)nc2cc(C(F)(F)F)ccc21 [4b, (E)-1-Allyl-2-styryl-5-(trifluoromethyl)-1H-benzo[d]imidazole] | 5.34 | 50.7 |
| C=CCn1c(-c2ccc(Oc3ccccc3)cc2)nc2cc(C)ccc21 [12b, 1-Allyl-5-methyl-2-(4-phenoxyphenyl)-1H-benzo[d]imidazole] | 3.16 | 40.9 |
